Experimental data from patent publication US7709259B2, “Enhancement of mammalian embryo development” (Board of Regents of the University of Texas System, priority 2003, dated 2010).
“Also recorded” adds a separate entry of the source.

Legend:
mouse embryos [1] = assay: Complete hatching of cultured two-cell mouse embryos; format: cell-based; settings: for effect on complete hatching: 0.1 μM
Experimental: Mice were kept under controlled temperature, humidity, and light cycle (12 hour light/dark cycle) conditions with free access to water and food. Three-week old C57B1/6 female mice were purchased from Harlan (Indianapolis, Ind., USA). Eight-week old C3H male mice were purchased initially from Harlan and later from The Jackson Laboratory (Bar Harbor, Me., USA). Superovulation in the female mice was achieved by intraperitoneal injection of pregnant mare serum gonadotropin (5 IU), followed by human chorionic gonadotropin (hCG, 5 IU) 46 hours later. After receiving hCG, each female mouse was paired with one fertile male mouse. Forty-eight hours later, two-cell embryos were harvested from the oviduct into α-MEM media supplemented with 25 mM HEPES and 1% BSA (Irvine Scientific).
Embryos (17-20 per group) were cultured at 37° C. under 5% CO2 in a four-well dish (Nalge Nunc International, Naperville, Ill., USA) containing 600 μl of medium in each well. The HTF and the α-MEM media were used sequentially during the 96-hour period to meet the changing nutritional requirements of the cleaving embryos [Gardner, 1998]. The HTF medium (SAGE Biopharma) was used during the first 48 hours, and the α-MEM medium (Irvine Scientific), with Earle's Salts and 2 mM glutamine, was used during the second 48 hours. The experimental embryos received Iloprost in water and the control embryos received an equal amount of water. […] After 96-hour culture, each embryo was examined for the presence of the zona pellucida. Embryos completely free of the zona pellucida were counted as having completely hatched. The rate of complete hatching was determined by dividing the number of completely hatched embryos by the total number of embryos. Complete hatching of embryos was chosen as an endpoint instead of blastocyst formation or embryo hatching because the latter two markers are not correlated with establishment of a viable pregnancy [Lane, 1997].
Student's t-test or one-way analysis of variance followed by Dunnett test were used where appropriate. A p<0.05 was considered statistically significant. Construction of dose response curves and calculation of ED50 values (with the Hill slope set at 1.0) were completed with the GraphPad Prism® software (GraphPad Prism Software Inc., San Diego, Calif., USA).

[2] = system: intact mouse embryos (blastocysts); assay: Whole embryo radioligand binding assay (3H-Iloprost); settings: 0.1 μM 3H-Iloprost, with or without 5 μM unlabeled Iloprost, 116 blastocysts
Experimental: Analysis of the binding of ^3H-Iloprost to blastocysts was performed as previously described [Arbab, 2002] with slight modification. Two hundred thirty-two hatched and hatching blastocysts were washed three times in binding buffer (10 mM MnCl2 in 10 mM HEPES, pH 7.4) and then transferred to 100 μl of binding buffer with or without unlabeled Iloprost (5 μM). The reaction was started by adding an equal amount of binding buffer containing ^3H-Iloprost (200 nM, specific activity 11.0 Ci/mmol, Amersham Biosciences) and incubating for 60 min at room temperature. The reaction was terminated by transferring the blastocysts to 2 ml of ice-cold wash buffer (0.01% BSA in 10 mM HEPES, pH 7.4). The buffer and the blastocysts were filtered through glass fiber filters (Whatman GF/C 2.4 cm) and the filters were washed three times with 2 ml of wash buffer. The filters were dried in an oven before the radioactivity was determined by scintillation counting with 5 ml of scintillation fluid.

mouse embryos [3] = assay: Developmental stage of cultured embryos at the time of transfer; format: cell-based
Experimental: (§1) Mouse embryos were harvested and cultured as described above, and subsequently published by the present inventor (Huang et al., 2003). Briefly, two-cell embryos ([…]) were harvested from super-ovulated, three-week old C57B1/6 female mice 42 hours after hCG injection. The embryos (14 per group) were cultured at 37° C. under 5% CO2 in four-well dish (Nalge Nunc International, Naperville, Ill., USA) each containing 600 μl HTF media (SAGE Biopharma, Bedminster, N.J., USA). The experimental embryos received Iloprost (1 μM, Caymen Chemical, Ann Arbor, Mich., USA) in water and the control embryos, an equal amount of water. In either case, the volume of water was less than 0.1% of the culture media.
(§2) Embryo transfer was performed on 2.5 day of pseudopregnancy under a dissecting microscope (Olympus SZ-PT). Surgical anesthesia was obtained through intraperitoneal injection of ketamine (200 mg/Kg) and xylazine (10 mg/Kg) (both from Burns Vet Supply Inc. TX, USA). Each uterine horn was accessed via a 2-cm flank incision. With the proximal oviduct held by a pair of forceps, an opening was created at the distal end of the uterine horn on the anti-mesenteric side with a 30 gauge needle. The opening permits the entry of transfer pipette which has an inner diameter of 135 μm (MidAtlantic Diagnostics, Inc. NJ, USA). Up to seven embryos in 0.8 μl of transfer media (α MEM with 25 mM HEPES and 1% BSA) were transferred to each horn. After each transfer, contents of the pipette were examined under a stereo microscope to identify retained embryos. The flank incision was closed with 9 mm metallic clips (Clay Adams, Parsippany, N.J., USA). To avoid mixing of control and experimental embryos due to embryo migration from one horn to the other (personal communication with Dr. Andreas Zimmer, University of Bonn, Germany), each gestational carrier received either control or experimental embryos. To maintain consistent transfer techniques, the embryo transfer was performed according to the same protocol and by one individual, who was blinded to the treatment the embryos being placed received. To ensure that both groups benefited equally from the experience gained over the course of the study (˜6 months), the embryos were assigned treatments (control or Iloprost) in blocks of four.

mouse embryos [4] = assay: Implantation rate 72 hours after transfer of cultured embryos to gestational carriers; format: in vivo
Experimental: as §1
The day after the embryo donors received hCG, vaginal smears were obtained from potential gestational carriers (eight week old C3B6F1 female mice) to determine the stage of estrus cycle. […]
Seventy-two hours after embryo transfer, implantation was determined based on a previously described method with some modifications (Paria et al., 1993). […] Discrete blue bands (indicated by *) encircling the uterine horns were counted (FIG. 6A). […] The uterine horns were then opened and the gestation sacs counted (FIG. 6B). The implantation rate was expressed as the number of gestation sacs per embryo transferred. […]

mouse embryos [5] = assay: Live birth rate, implantation rate and weights of pups and placentae 14 days after embryo transfer; format: in vivo
Experimental: as §1
The day after the embryo donors received hCG, vaginal smears were obtained from potential gestational carriers (eight week old C3B6F1 female mice) to determine the stage of estrus cycle. Those in estrus were paired with vasectomized ICR males (Harlan) and checked for vaginal plugs on the following morning. Those with plugs were designated to be 0.5 day pseudopregnant.
as §2
In order to count and weigh the pups accurately, we sacrificed gestational carriers 14 days after embryo transfer (16.5 days of pregnancy or two days before natural birth). After euthanasia, the number of live pups was counted and the weight of individual pup and placenta was determined. All pups were examined for gross anomalies. The number of empty gestation sacs was also counted in order to determine the implantation rate. The live birth rate was expressed as the number of live pups per embryo transferred; the implantation rate was expressed as the number of sacs, with or without live pups, per embryo transferred.
The Fisher's exact test was used to compare the rates; the Student's t-test was used to compare the weights. A p<0.05 was considered as statistically significant. The GraphPad Instat® software (GraphPad Software Inc., San Diego, Calif., USA) was used for statistical analysis.

[6] = system: human embryos (frozen zygotes); assay: Blastocyst formation study with frozen human zygotes; format: cell-based; settings: Frozen Zygote, 0.1 μM
Experimental: (§3) With the patients' written instructions, 101 frozen zygotes from 14 couples were used for the blastocyst formation study. The zygotes had been frozen during the period of January, 1993 to November, 2003. After overnight culture, only those embryos that had developed to 2-cell stage were used for further study. For each patient, those 2-cell stage embryos were split into a control pool or an experimental pool. All embryos were cultured in Gobal medium (a modified KSOM medium from IVF online) for 5 days with change medium at 2.5 day. The experimental group was supplemented with 0.1 μM of Iloprost (Cayman Chemical, Ann Arbor, Mich.). The control group was supplemented with vehicle (0.000001% DMSO). Chi-Square test were used to compare the number of blastocyst formed. The quality (size, inner cell mass, trophectoderm) of blastocysts was analyzed by non-parametric Wilcoxon Rank Sum Test. The statistical significance was defined at P<0.05. Another 52 donated frozen blastocysts, from 9 couples, were used for short term study. Forty-five thawed blastocysts were recovered. Those blastocysts were immediately cultured with or without Iloprost. The re-expansion of blastocoel was checked 18 hours later. The analysis of outcome was the same as the analysis for the frozen zygotes study.

human frozen blastocysts = assay: Short term study with thawed frozen human blastocysts; format: cell-based
Experimental: as §3

rabbits = settings: Iloprost given throughout the gestation period; cited from earlier work
monkeys = settings: Iloprost given throughout the gestation period; cited from earlier work
rats = settings: Iloprost given throughout the gestation period; cited from earlier work
[7] = 1 μM in HTF media, 81 embryos transferred

CCCCC[C@H](O)/C=C/[C@H]1[C@H](O)CC(=O)[C@@H]1C/C=C\CCCC(=O)O [PGE2, prostaglandin E2]
effect on complete hatching of cultured mouse embryos (mouse embryos [1]; preliminary data): enhanced the complete hatching

CC#CCC(C)[C@H](O)/C=C/[C@@H]1[C@H]2C/C(=C/CCCC(=O)O)C[C@H]2C[C@H]1O (stereo partly shown) [Iloprost]
effect on complete hatching (mouse embryos [1]; exposure 0-72 hours after harvest): same rates of complete hatching as did 0-96 hours exposure
effect on complete hatching (mouse embryos [1]; exposure 24-42 hours (eight-cell embryos to morulae)): ensured enhanced hatching
effect on complete hatching (mouse embryos [1]; exposure 24-72 hours after harvest): same rates of complete hatching as did 0-96 hours exposure
effect on complete hatching (mouse embryos [1]; exposure 42-72 hours (morulae to early blastocysts)): ensured enhanced hatching
effect on complete hatching (mouse embryos [1]; exposure during the first 24 hours of culture (two-cell to eight-cell)): did not enhance hatching
rate of complete hatching (mean±S.D.) (mouse embryos [1]; 1 μM, maximum augmentation, 96 hours, n=3, control 49±14%): 81±7%
concentration at which effects on complete hatching were statistically significant (mouse embryos [1]; 96 hour culture): ≥ 0.1 µM
EC50 (mouse embryos [1]; Mus musculus, 96 h, two-cell mouse embryos cultured 96 hours with 1 nM to 10 μM, Hill slope set at 1.0, read-out: ED50 for enhancement of complete hatching): 6.7 nM
3H-Iloprost specifically bound [2]: approximately 3.04 fmol
Degenerated (number of embryos at transfer) (mouse embryos [3]; [7]): 0
Hatching Blastocyst (number of embryos at transfer) (mouse embryos [3]; [7]): 2
Morula (number of embryos at transfer) (mouse embryos [3]; [7]): 49
Early Blastocyst (number of embryos at transfer) (mouse embryos [3]; 1 μM, 81 embryos transferred, blastocoele cavity <49% of the embryo): 8
Late Blastocyst (number of embryos at transfer) (mouse embryos [3]; 1 μM, 81 embryos transferred, blastocoele cavity ≧50% of the embryo): 22
embryos at the morula stage at the time of transfer (mouse embryos [3]; experimental and control embryos): approximately 70%
Number of gestation sacs (mouse embryos [4]; 72 hours after transfer of 81 embryos cultured with 1 μM, control 35): 62
implantation rate (gestation sacs per embryo transferred) (mouse embryos [4]; 72 hours after transfer, control 42%): 76%
Pup weight (mean ± S.D.) (mouse embryos [5]; 14 days after transfer (16.5 days of pregnancy), control 0.788 ± 0.151): 0.772 ± 0.124 gm
Total number of live pups (mouse embryos [5]; 14 days after transfer of 415 embryos to 31 carriers, control 115): 149
Placental weight (mean ± S.D.) (mouse embryos [5]; 14 days after transfer, control 0.166 ± 0.037): 0.166 ± 0.003 gm
live birth rate (live pups per embryo transferred) (mouse embryos [5]; 14 days after transfer, control 28%): 36%
implantation rate (sacs with or without live pups per embryo transferred) (mouse embryos [5]; 14 days after transfer, control 46%): 59%
gross anomalies of pups (mouse embryos [5]; embryos exposed during the pre-implantation period, live pups examined): no gross anomalies; also recorded: no digit reduction or other anomalies
blastocysts formed / embryos ([6]; 5 days culture, control 11/26): (18/26)
Blastocyst formation rate ([6]; 5 days culture, control 42%): 69%
ICM (coding A = 3, B = 2, C = 1) ([6]; inner cell mass, control 0.50): 1.42
Size (score 1-6) ([6]; morula or degenerated = 0, control 1.42): 3.04
TRO (coding A = 3, B = 2, C = 1) ([6]; trophectoderm, control 0.46): 1.31
TRO (coding A = 3, B = 2, C = 1) (human frozen blastocysts; Frozen blastocyst, 18 hours, control 0.68): 0.78
ICM (coding A = 3, B = 2, C = 1) (human frozen blastocysts; Frozen blastocyst, 18 hours, control 0.72): 0.86
Size (score 1-6) (human frozen blastocysts; Frozen blastocyst, 18 hours, control 1.45): 1.47
blastocysts / thawed blastocysts (human frozen blastocysts; Frozen blastocyst, 18 hours, control 11/22): (11/23)
Blastocyst formate rate (human frozen blastocysts; re-expansion of blastocoel checked 18 hours after thaw, control 50%): 48%
embryonic and fetal development (rabbits): not affected
embryonic and fetal development (monkeys): not affected
embryonic and fetal development (rats): digit reduction
